Measurements reported in article PMC8703884, “Synthesis and Biological Evaluation of S-, O- and Se-Containing Dispirooxindoles” (Molecules, 2021).

Legend:
[1] = system: A549 human lung adenocarcinoma epithelial cell line; assay: MTT cytotoxicity test, A549; format: cell-based; details: 72 h incubation
[2] = system: MCF7 breast cancer cell line; assay: MTT cytotoxicity test, MCF7; format: cell-based; details: Homo sapiens, 72 h incubation
Protocol: (§1) MTT test. […] Assays were performed in triplicates.

[3] = MTT cytotoxicity test, VA13; format: cell-based; details: human, VA13 SV40-transformed normal lung fibroblast cells, 72 h incubation
Protocol: as §1

[4] = MTT cytotoxicity test, Hek293T; format: cell-based; details: human, 72 h incubation
[5] = system: HCT116^+/+ human colon cancer cells (p53 positive); assay: MTT cytotoxicity test, HCT116 p53+/+; details: for CC50: Homo sapiens, HCT-116, read-out: CC50, HCT^+/+; for selectivity S against HCT116^+/+ over HCT116^−/−: ratio of CC50 values of the cell line pair
Excerpt: (§2) The used models included human prostate cancer cell lines LNCaP and PC3, breast cancer cell line (MCF-7), human colon cancer cells (HCT116^+/+, p53 positive, p53^+/+ and HCT116^−/−, p53 negative, p53^−/−), human lung adenocarcinoma epithelial cell line (A549), SV40-transformed normal human lung fibroblast cells (VA13), as well as human embryonic kidney 293 cells (Hek293) stably expressing SV40 large T antigen (Hek293T). The cytotoxicity of the evaluated molecules was properly assessed using a MTT assay based on the modified approach reported by Ferrari and colleagues.
(§3) To further elucidate the dominant mode of action, we used HCT116^+/+ and HCT116^−/− cells by analogy with the paper published by Shangary and colleagues. This isogenic cell line is commonly applied to investigate the p53/MDM2-dependent mode of action.
(§4) MTT test. The MTT assay was carried out according to [35] with few modifications; 3000 Cells (for HEK293T, A549 and MCF7cell lines) or 4000 cells (for VA13 cell line) were seeded in each well of a 96-well plate. […] Assays were performed in triplicates. […] The MTT solution was then discarded and 140 µL of DMSO was added. The plates were swayed on a shaker (60 rpm) to solubilize the formazan. […] The analysis of cytotoxicity and the estimation of IC50 values were carried out with the built-in functions in the GraphPad Prism program (GraphPad Software, Inc., San Diego, CA) P53 activation.

[6] = system: HCT116^−/− human colon cancer cells (p53 negative); assay: MTT cytotoxicity test, HCT116 p53-/-; details: HCT-116, read-out: CC50, HCT^−/−
Excerpt: as §2, §3, §4

[7] = system: LNCaP human prostate cancer cell line; assay: MTT cytotoxicity test, LNCaP; format: cell-based; details: for CC50: Homo sapiens, LNCaP, read-out: CC50, LNCaP; for selectivity index S for LNCaP/PC3 cells: ratio of CC50 values of the cell line pair
[8] = system: PC3 human prostate cancer cell line; assay: MTT cytotoxicity test, PC3; format: cell-based; details: Homo sapiens
[9] = system: p53 expression level in p53wt A549 cell line; assay: p53 activation, β-galactosidase reporter construction; details: high concentrations (>100 μM), 24 h
Protocol: The β-galactosidase reporter construction equipped with the p53 promotor frame [46] was used to assess the p53 expression level in p53wt A549 cell line. The compounds were tested in the concentration range of 0.5–120 μM with triple dilution steps. The incubation time was 24 h. To take into account the toxic effect of the molecules, the output signal was normalized considering the number of the cells estimated by MTT test with the same incubation tome (24 h). The output was statistically significant if the background signal was exceeded two or more times.

HEK293 cells = system: HEK293 cells; parameters: method as in PMID 21058726; details: 24 h cytotoxicity, MTT assay; cited from earlier work
HCT116 cells = system: HCT116 cells; parameters: method as in PMID 24997575; details: MTT assay; cited from earlier work
[10] = system: PC3 human prostate adenocarcinoma cells (p53-null); parameters: method as in PMID 28339198; details: mitogenesis inhibition, dye assay, WST-8; cited from earlier work
[11] = system: LNCaP cells (androgen-dependent); parameters: method as in PMID 28339198; details: mitogenesis inhibition, dye assay, WST-8; cited from earlier work
[12] = system: HCT116^+/+ human colon carcinoma cells; parameters: method as in PMID 28339198; details: cited from earlier work
[13] = system: HCT116^−/− human colon carcinoma cells; parameters: method as in PMID 28339198; details: cited from earlier work
[14] = system: MCF7 cells (hormone-dependent); parameters: method as in PMID 23802716; details: cited from earlier work
PC3 cell line = system: PC3 cell line; parameters: method as in PMID 23802716; details: cited from earlier work

Row | Structure (SMILES) | CC50 [1] [µM] | CC50 [2] [µM] | CC50 at 72 h [3] [µM] | CC50 at 72 h [4] [µM] | CC50 [5] [µM] | CC50 [6] [µM] | CC50 ([7]; MTT test) [µM] | CC50 [8] [µM] | melting point [°C] | further results
1 | CN1CC2(NC(=S)N(C3CC3)C2=O)C2(C1)C(=O)Nc1ccc(Cl)cc12 (stereo not drawn) [Compound 4t, 5″-Chloro-1′-methyl-1-cyclopropyl-2-thioxodispiro[imidazolidine-4,3′-pyrrolidine-4′,3″-indoline]-2″,5-dione] | > 100 | > 100 | > 100 | > 100 | > 100 | > 100 | > 100 | > 100 | 275 to 276 | 
2 | CN1CC2(NC(=S)N(CCCN3CCOCC3)C2=O)C2(C1)C(=O)Nc1ccccc12 (stereo not drawn) [Compound 4u, 1′-Methyl-1-(3-morpholinopropyl)-2-thioxodispiro[imidazolidine-4,3′-pyrrolidine-4′,3″-indoline]-2″,5-dione] | > 100 | > 100 | > 100 | > 100 | 20.8 ± 4.8 | > 100 | 3.4 ± 0.6 | 53.6 ± 17.3 | 216 to 217 | selectivity S against HCT116^+/+ over HCT116^−/− [5]: > 1.8; selectivity on LNCaP cells over PC3 cells ([7]; MTT test): selective; selectivity index S for LNCaP/PC3 cells [7]: 15.7
3 | CN1CC2(NC(=S)N(c3ccccc3)C2=O)C2(C1)C(=O)Nc1ccccc12 (stereo not drawn) [Compound 4w, 1′-Methyl-1-phenyl-2-thioxodispiro[imidazolidine-4,3′-pyrrolidine-4′,3″-indoline]-2″,5-dione] | > 100 | 57.9 ± 17.1 | 94.1 ± 19.7 | 75.1 ± 8.6 | 54.7 ± 9.5 | > 100 | 9.8 ± 1.8 | 52.2 ± 11.6 | 273 to 274 | selectivity S against HCT116^+/+ over HCT116^−/− [5]: > 4.8; selectivity index S for LNCaP/PC3 cells [7]: 5.3
4 | CN1CC2(NC(=O)N(c3ccc(F)c(Cl)c3)C2=O)C2(C1)C(=O)Nc1ccc(Cl)cc12 (stereo not drawn) [Compound 9r, 5″-Chloro-1-(3-chloro-4-fluorophenyl)-1′-methyldispiro[imidazolidine-4,3′-pyrrolidine-4′,3″-indoline]-2,2″,5-trione] | 35.3 ± 17.7 |  |  | 15.1 ± 1.2 |  |  | 19.6 ± 1.8 | > 50 |  | CC50, LNCaP ([7]; MTT test): good activity; selectivity on LNCaP cells over PC3 cells ([7]; MTT test): selective; p53 activation [9]: 2.1 fold
5 | O=C1C2CCC3(C(=O)Nc4ccccc43)C2C(=O)N1Cc1ccc(Cl)cc1 (stereo not drawn) [Compound IV] |  |  |  |  |  |  |  |  |  | CC50 (HEK293 cells): 0.44 µM
6 | CC(C)(C)CC1N[C@@H](C(=O)Nc2ccc(C(N)=O)cc2)[C@H](c2ccc(F)c(Cl)c2)C12C(=O)Nc1cc(Cl)ccc12 (stereo partly drawn) [Compound V] |  |  |  |  |  |  |  |  |  | IC50 (HCT116 cells): 0.09 µM
7 | CCN1[C@@H](C(=O)CC23CCC(C(=O)O)(CC2)CC3)[C@H](c2ccc(F)c(Cl)c2)C2(C(=O)Nc3cc(Cl)ccc32)C12CCCCC2 (stereo partly drawn) [II] |  |  |  |  |  |  |  |  |  | IC50 [10]: 22 µM; IC50 [11]: 0.018 ± 0.013 µM; selectivity towards p53-positive cells ([12]; HCT116^+/+ vs HCT116^−/−): 80 fold; IC50 [12]: 0.1 µM; IC50 [13]: 8 µM
8 | CCOC(=O)C1CSC2(C(=O)N(C)c3ccc(Br)cc32)N1C(=O)C1CCCCC1 (stereo not drawn) [VI] |  |  |  |  |  |  |  |  |  | IC50 [14]: 0.04 µM; IC50 (PC3 cell line): 0.41 µM
